Data set [1] in a line: MTS viability (toxicity) assay of cells expressing pluripotency markers. Details: Raw data (duplicate), first replicate / Average: unit not given here. It counts as cell-based, human. The conditions noted are these: human, MTS on day 4, relative to Activin A + Wnt3a positive control, read-out: % Control (percentage viability of control); for viability at 4 days, 2.5 μM: cmpd conc 2.5 μM; for viability at 4 days, 5 μM: cmpd conc 5 μM; for viability at 4 days, 10 μM: cmpd conc 10 μM. Summed up:
(§1)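 Cells expressing pluripotency markers, derived from human embryonic stem cells, were plated at 20,000 cells per well in 96-well clear-bottom plates and cultured overnight. Test compounds were applied in assay medium on days 1 and 2, and compound-free medium on days 3 and 4. On day 4, MTS was added and optical density at 490 nm was read in duplicate.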

Data set [2] concerns cells expressing pluripotency markers derived from human embryonic stem cells. Described as above. It counts as cell-based. Set-up: Raw data (duplicate), first replicate / Average: unit not given here. The conditions noted are these: for viability at 10 µM: Homo sapiens, Embryonic stem cell, viability of cells expressing pluripotency markers, relative to control; for Average of raw data (duplicate), optical density at 490 nm: MTS on day 4. The essentials:
as §1

Data set [3] concerns human embryonic stem cell line H1. The data set can be described thus: Dose titration secondary assay: cell number, H1. The note with it: Homo sapiens, Embryonic stem cell, positive control (Wnt3a/Activin A) normalized to 1.000; for activity at 0.156 µM: Conc 0.156 μM; for activity at 0.313 µM: Conc 0.313 μM; for activity at 0.625 µM: Conc 0.625 μM; for activity at 1.25 µM: Conc 1.25 μM; for activity at 2.5 µM: Conc 2.5 μM; for activity at 5 µM: Conc 5 μM; for activity at 10 µM: Conc 10 μM. It counts as cell-based. Summed up: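 H1 or H9 hESCs on Matrigel treated 2 days with compound (seven 2-fold dilutions from 10 μM) in DMEM:F12, 0.5% FCS, 100 ng/ml Activin A without Wnt3a, then 2 days in 2% FCS plus Activin A. Fixed cells immunostained for Sox17 with Hoechst nuclear counterstain for imaging.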

Where [4] appears, read: MTS viability assay raw reading, replicate 1.
Setting [5] is: MTS viability assay raw reading, replicate 2.
Where [6] appears, read: average of duplicate MTS raw readings.

Experimental findings from patent US20130337564A1, “Treatment of Pluripotent Cells” (Janssen Biotech, Inc., priority 2012, published 2013) are described below.

For `CN(C)c1ccc(-n2cc(C3=C(c4nn(CCO)c5ccccc45)C(=O)NC3=O)c3cc(Cl)ccc32)cn1` [Compound 148, 3-{5-Chloro-1-[6-(dimethylamino)pyridin-3-yl]-1H-indol-3-yl}-4-[1-(2-hydroxyethyl)-1H-indazol-3-yl]-1H-pyrrole-2,5-dione], in data set [1], the viability at 4 days, 2.5 μM is 20.4%; the viability at 4 days, 5 μM was 3.8%; the viability at 4 days, 10 μM was 3.5%. Besides, in data set [2], the viability at 10 µM came out at 88.8%. Moreover, in data set [2] (setting [4]), the “Raw data (duplicate), first replicate” value was determined as 0.753. The “Raw data (duplicate), second replicate” value in data set [2] (setting [5]) is recorded as 0.687. Moreover, the Average in data set [2] (setting [6]) stood at 0.720. The “Average of raw data (duplicate), optical density at 490 nm” value (“Average of raw data (duplicate)” for short) in data set [2] (cmpd conc 2.5 μM) worked out at 0.2669. Moreover, in data set [2] (cmpd conc 5 μM), the “Average of raw data (duplicate)” value worked out at 0.1559. Moreover, the “Average of raw data (duplicate)” value in data set [2] (cmpd conc 10 μM) was found to be 0.1537. Also, in data set [3], the activity at 0.156 µM was 121%, the activity at 0.313 µM amounted to 121%, the activity at 0.625 µM was determined as 136% and the activity at 1.25 µM was determined as 165%. For the same molecule, in data set [3], the activity at 2.5 µM amounted to 172%, the activity at 5 µM is 101% and the activity at 10 µM came out at 0.2%.

For the molecule `COC(=O)c1cncc(-n2cc(C3=C(c4nn(CCO)c5ccccc45)C(=O)NC3=O)c3cc(Cl)ccc32)c1` [Compound 150, Methyl 5-(5-chloro-3-{4-[1-(2-hydroxyethyl)-1H-indazol-3-yl]-2,5-dioxo-2,5-dihydro-1H-pyrrol-3-yl}-1H-indol-1-yl)pyridine-3-carboxylate], in data set [1], the viability at 4 days, 2.5 μM came to 94.8%; the viability at 4 days, 5 μM is 84.9%; the viability at 4 days, 10 μM was determined as 14.3%. Besides, the viability at 10 µM in data set [2] was found to be 81.7%. In data set [2] (MTS viability readout, average of duplicate raw data), the Average was found to be 0.673. Moreover, the “Raw data (duplicate), first replicate” value in data set [2] (MTS viability readout, raw value of replicate 1) is recorded as 0.668. Besides, the “Raw data (duplicate), second replicate” value in data set [2] (MTS viability readout, raw value of replicate 2) is 0.678. Further, the “Average of raw data (duplicate)” value in data set [2] (cmpd conc 2.5 μM) is listed as 0.7630. The “Average of raw data (duplicate)” value in data set [2] (cmpd conc 5 μM) came to 0.6972. Also, the “Average of raw data (duplicate)” value in data set [2] (cmpd conc 10 μM) worked out at 0.2259. Further, in data set [3], the activity at 0.156 µM was 104%, the activity at 0.313 µM is 124%, the activity at 0.625 µM turned out to be 102% and the activity at 1.25 µM came out at 121%. In data set [3], the activity at 2.5 µM was 129%, the activity at 5 µM turned out to be 116% and the activity at 10 µM was 5.2%.

On to `OCCC#Cc1nc(-c2ccc(F)cc2)c(-c2ccncc2)n1CCCc1ccccc1` [Compound 158, 4-[4-(4-Fluorophenyl)-1-(3-phenylpropyl)-5-pyridin-4-yl-1H-imidazol-2-yl]but-3-yn-1-ol], for which, in data set [1], the viability at 4 days, 2.5 μM is 93.2%; the viability at 4 days, 5 μM was 96.2%; the viability at 4 days, 10 μM worked out at 66.5%. Moreover, in data set [2], the viability at 10 µM was determined as 77.7%. The “Raw data (duplicate), first replicate” value in data set [2] (setting [4]) is recorded as 0.629. For the same molecule, the “Raw data (duplicate), second replicate” value in data set [2] (setting [5]) is on record as 0.659. The same molecule registered an Average in data set [2] (setting [6]) of 0.644. Further, the “Average of raw data (duplicate)” value in data set [2] (cmpd conc 2.5 μM) was determined as 0.7971. In addition, the “Average of raw data (duplicate)” value in data set [2] (cmpd conc 5 μM) was 0.8183. For the same molecule, in data set [2] (cmpd conc 10 μM), the “Average of raw data (duplicate)” value is reported as 0.6052. In data set [3], the activity at 0.156 µM was determined as 110%, the activity at 0.313 µM is 122%, the activity at 0.625 µM is 123% and the activity at 1.25 µM came out at 116%. Further, in data set [3], the activity at 2.5 µM came out at 102%, the activity at 5 µM amounted to 90.5% and the activity at 10 µM is 5.3%.

In the case of `CN(CCO)CCCn1nc(C2=C(c3cn(-c4cccnc4)c4ccccc34)C(=O)NC2=O)c2ccccc21` [Compound 198, 3-(1-{3-[(2-Hydroxyethyl)(methyl)amino]propyl}-1H-indazol-3-yl)-4-(1-pyridin-3-yl-1H-indol-3-yl)-1H-pyrrole-2,5-dione], in data set [1], the viability at 4 days, 2.5 μM is 92.5%; the viability at 4 days, 5 μM was 83.8%; the viability at 4 days, 10 μM stood at 49.7%. For the same molecule, in data set [2], the viability at 10 µM is 112%. Besides, in data set [2] (setting [4]), the “Raw data (duplicate), first replicate” value amounted to 0.856. For the same molecule, the “Raw data (duplicate), second replicate” value in data set [2] (setting [5]) is on record as 0.905. In data set [2] (setting [6]), this molecule returned an Average of 0.881. In data set [2] (cmpd conc 2.5 μM), the “Average of raw data (duplicate)” value is 0.7480. Also, the “Average of raw data (duplicate)” value in data set [2] (cmpd conc 5 μM) turned out to be 0.6893. For the same molecule, the “Average of raw data (duplicate)” value in data set [2] (cmpd conc 10 μM) amounted to 0.4619. Besides, in data set [3], the activity at 0.156 µM worked out at 82.2%, the activity at 0.313 µM was 75.4%, the activity at 0.625 µM is 74.2% and the activity at 1.25 µM is 89.9%. In data set [3], the activity at 2.5 µM was 103%, the activity at 5 µM came to 106% and the activity at 10 µM came to 101%.

For `O=C1NC(=O)C(c2cn(-c3cccnc3)c3ccccc23)=C1c1cn(CCO)c2ccccc12` [Compound 206, 3-[1-(2-Hydroxyethyl)-1H-indol-3-yl]-4-(1-pyridin-3-yl-1H-indol-3-yl)-1H-pyrrole-2,5-dione], in data set [1], the viability at 4 days, 2.5 μM was 93.1%; the viability at 4 days, 5 μM came to 90.2%; the viability at 4 days, 10 μM worked out at 7.3%. Further, the viability at 10 µM in data set [2] came out at 110%. The “Raw data (duplicate), first replicate” value in data set [2] (setting [4]) is given as 0.845. Besides, in data set [2] (setting [5]), the “Raw data (duplicate), second replicate” value is 0.877. In data set [2] (setting [6]), the Average was 0.861. The “Average of raw data (duplicate)” value in data set [2] (cmpd conc 2.5 μM) is listed as 0.7517. The “Average of raw data (duplicate)” value in data set [2] (cmpd conc 5 μM) was determined as 0.7326. Further, the “Average of raw data (duplicate)” value in data set [2] (cmpd conc 10 μM) was 0.1793. For the same molecule, in data set [3], the activity at 0.156 µM stood at 80.4%, the activity at 0.313 µM was 93.1%, the activity at 0.625 µM came out at 109% and the activity at 1.25 µM was 112%. In addition, in data set [3], the activity at 2.5 µM stood at 102%, the activity at 5 µM was 116% and the activity at 10 µM was found to be 3.9%.

For `Cc1c[nH]c(-c2cnc(NCCNc3ccc(C#N)cn3)nc2-c2ccc(Cl)cc2Cl)n1` [Compound 221, 6-[(2-{[4-(2,4-Dichlorophenyl)-5-(4-methyl-1H-imidazol-2-yl)pyrimidin-2-yl]amino}ethyl)amino]pyridine-3-carbonitrile], in data set [1], the viability at 4 days, 2.5 μM was 112%; the viability at 4 days, 5 μM worked out at 82.3%; the viability at 4 days, 10 μM worked out at 67.5%. In addition, in data set [2], the viability at 10 µM worked out at 98.8%. In data set [2] (cmpd conc 2.5 μM), the “Average of raw data (duplicate)” value was found to be 0.9324. Also, the “Average of raw data (duplicate)” value in data set [2] (cmpd conc 5 μM) is 0.7191. For the same molecule, the “Average of raw data (duplicate)” value in data set [2] (cmpd conc 10 μM) is 0.6128. Moreover, in data set [3], the activity at 0.156 µM stood at 108%, the activity at 0.313 µM was found to be 113%, the activity at 0.625 µM was found to be 111% and the activity at 1.25 µM stood at 112%. Besides, in data set [3], the activity at 2.5 µM came to 89.6%, the activity at 5 µM worked out at 88.9% and the activity at 10 µM was 19.3%.

Consider `CC(C)(O)CCn1nc(C2=C(c3cn(-c4cccnc4)c4ccccc34)C(=O)NC2=O)c2ccccc21` [Compound 223, 3-[1-(3-Hydroxy-3-methylbutyl)-1H-indazol-3-yl]-4-(1-pyridin-3-yl-1H-indol-3-yl)-1H-pyrrole-2,5-dione], for which, in data set [1], the viability at 4 days, 2.5 μM worked out at 99.6%; the viability at 4 days, 5 μM came out at 93.9%; the viability at 4 days, 10 μM turned out to be 83.7%. Further, the viability at 10 µM in data set [2] is 97.8%. The “Raw data (duplicate), first replicate” value in data set [2] (setting [4]) is on record as 0.770. Also, the “Raw data (duplicate), second replicate” value in data set [2] (setting [5]) was 0.786. Also, the Average in data set [2] (setting [6]) was 0.778. For the same molecule, the “Average of raw data (duplicate)” value in data set [2] (cmpd conc 2.5 μM) is recorded as 0.8427. Further, the “Average of raw data (duplicate)” value in data set [2] (cmpd conc 5 μM) was found to be 0.8021. The “Average of raw data (duplicate)” value in data set [2] (cmpd conc 10 μM) was found to be 0.7287. Also, in data set [3], the activity at 0.156 µM is 77.6%, the activity at 0.313 µM was determined as 102%, the activity at 0.625 µM was determined as 103% and the activity at 1.25 µM worked out at 116%. Besides, in data set [3], the activity at 2.5 µM stood at 132%, the activity at 5 µM amounted to 135% and the activity at 10 µM was 128%.
